Reference: patent US20200062710A1, “Method For Producing 3-(Pyridyl-2-Amino)Propionitrile And Analogues Thereof” (Nipppon Kayaku Kabushiki Kaisha, priority 2016, published 2020)

Key:
[1] = test system: Rice Brown Planthopper (Nilaparvata lugens); test: Pest control test (stem and leaf soaking treatment) to rice brown planthopper; format: in vivo; settings: 800 ppm, rice seedlings soaked, 25° C., five days after treatment
Description: Biological Test Example 2: Pest Control Test (Stem and Leaf Soaking Treatment) to Rice Brown Planthopper (Nilaparvata lugens)
Ten rice seedlings were soaked in 20 mL of the test compound solution diluted to 800 ppm and air-dried. After air drying, the rice seedings were hold in a glass cylinder (inner diameter 4.5 cm×14 cm) with urethane and stood on the plastic cup in which 40 mL of water was put. The […] larva of rice brown planthopper was released there, covered with medicine package, and kept in a constant temperature room at 25° C. In five days after treatment, life and death were observed and the mortality was calculated.

[2] = test system: Twospotted Spider Mite (Tetranychus urticae); test: Pest control test (leaf soaking treatment) to twospotted spider mite; format: in vivo; settings: 800 ppm, bean leaf with eggs soaked about 30 seconds, 25° C., seven days after treatment
Description: Biological Test Example 1: Pest Control Test (Leaf Soaking Treatment) to Twospotted Spider Mite (Tetranychus urticae)
A bean leaf was cut to a diameter of 3.5 cm and placed on absorbent cotton moistened with water. Five adult females of the twospotted spider mite were released on the bean leaf and laid eggs for 24 hours, and then the adults were removed. This bean leaf was soaked for about 30 seconds in 20 mL of the dilution solution of the test compound diluted to 800 ppm. After air-drying, the bean leaf was put in a plastic cup together with absorbent cotton, covered, and kept in a constant temperature room at 25° C. In seven days after treatment, life and death were observed and the ovicidal rate was calculated.

## N#CCCNc1ccccn1 [compound (1′), 3-(Pyridyl-2-amino)propionitrile]
[1]
  control effect (mortality): 50%

## N#CCCN(C=O)c1ccccn1 [compound (4′), N-(2-cyanoethyl)-N-(2-pyridyl)formamide]
[2]
  pest control effect (ovicidal rate): 100%
